Data: BindingDB's records for patent US10889592 (VALO EARLY DISCOVERY, INC., 2021)

Key:
[1] = target: T1, Ubiquitin carboxyl-terminal hydrolase 25 (Homo sapiens, UniProt Q9UHP3); test: Biochemical Assay
T1 sequence (Q9UHP3 whole entry): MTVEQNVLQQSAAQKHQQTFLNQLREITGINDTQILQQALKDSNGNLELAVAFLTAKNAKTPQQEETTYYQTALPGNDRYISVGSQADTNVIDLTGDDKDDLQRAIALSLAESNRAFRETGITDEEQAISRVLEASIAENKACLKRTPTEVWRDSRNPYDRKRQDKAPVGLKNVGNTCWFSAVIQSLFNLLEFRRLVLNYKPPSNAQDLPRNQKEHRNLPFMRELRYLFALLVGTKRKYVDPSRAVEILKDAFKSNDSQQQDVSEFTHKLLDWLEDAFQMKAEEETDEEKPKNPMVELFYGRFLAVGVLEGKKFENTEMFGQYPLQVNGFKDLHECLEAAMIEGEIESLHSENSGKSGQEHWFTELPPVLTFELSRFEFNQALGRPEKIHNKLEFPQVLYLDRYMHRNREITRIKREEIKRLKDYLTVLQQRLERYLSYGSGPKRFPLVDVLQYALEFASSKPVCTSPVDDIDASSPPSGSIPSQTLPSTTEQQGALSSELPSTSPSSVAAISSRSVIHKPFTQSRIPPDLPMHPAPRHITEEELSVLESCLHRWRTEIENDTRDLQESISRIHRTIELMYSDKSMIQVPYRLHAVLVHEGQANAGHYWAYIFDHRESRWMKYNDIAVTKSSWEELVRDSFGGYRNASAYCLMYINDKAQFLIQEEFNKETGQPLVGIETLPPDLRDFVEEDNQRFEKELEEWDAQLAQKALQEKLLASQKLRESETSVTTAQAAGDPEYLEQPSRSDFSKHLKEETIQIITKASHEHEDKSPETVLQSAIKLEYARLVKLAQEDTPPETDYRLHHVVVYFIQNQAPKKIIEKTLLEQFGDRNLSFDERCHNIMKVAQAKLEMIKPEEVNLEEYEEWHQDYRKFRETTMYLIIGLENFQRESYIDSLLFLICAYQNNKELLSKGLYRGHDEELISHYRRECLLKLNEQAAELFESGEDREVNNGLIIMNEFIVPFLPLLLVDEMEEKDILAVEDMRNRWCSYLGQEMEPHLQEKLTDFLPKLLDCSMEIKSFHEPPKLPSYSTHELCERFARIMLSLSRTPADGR
Method: USP25: The assay was performed in a final volume of 9 μL in assay buffer containing 20 mM Tris-HCl (pH 8.0, (1M Tris-HCl, pH 8.0 solution; Corning 46-031-CM)), 3 mM BME (2-Mercaptoethanol; Sigma 63689-25ML-F), 0.03% BGG (0.22 μM filtered. Sigma, G7516-25G), and 0.01% Triton X-100 (Sigma, T9284-10L). Nanoliter quantities of 10-point, 3-fold serial dilution in DMSO was pre-dispensed into 1536 assay plates (Corning, #3724BC) for a final test concentration of 25 μM to 1.3 nM, top to lowest dose, respectively. Enzyme USP25, construct USP25-His6, (Boston Biochem E-546). Concentration and incubation times were optimized for the maximal signal-to-background while maintaining initial velocity conditions at a fixed substrate concentration. The final concentration of the enzyme in the assay was 75 pM. Final substrate (Ub-Rh110 Ubiquitin-Rhodamine 110, R&D Systems # U-555) concentration was 25 nM with [Ub-Rh110]<<Km. 3 μL of 2× enzyme was added to assay plates (pre-stamped with compound) preincubated with […] for 30 minutes and then 3 μL of 2×Ub-Rh110 was added to assay plates. […] Fluorescence was read on the Envision (Excitation at 485 nm and Emission at 535 nm; Perkin Elmer) or on the PheraSTAR (Excitation at 485 nm and Emission at 535 nm; BMG Labtech).

[2] = target: T2, Ubiquitin carboxyl-terminal hydrolase 28 (Homo sapiens, UniProt Q96RU2); test: Biochemical Assay
T2 sequence (Q96RU2 whole entry): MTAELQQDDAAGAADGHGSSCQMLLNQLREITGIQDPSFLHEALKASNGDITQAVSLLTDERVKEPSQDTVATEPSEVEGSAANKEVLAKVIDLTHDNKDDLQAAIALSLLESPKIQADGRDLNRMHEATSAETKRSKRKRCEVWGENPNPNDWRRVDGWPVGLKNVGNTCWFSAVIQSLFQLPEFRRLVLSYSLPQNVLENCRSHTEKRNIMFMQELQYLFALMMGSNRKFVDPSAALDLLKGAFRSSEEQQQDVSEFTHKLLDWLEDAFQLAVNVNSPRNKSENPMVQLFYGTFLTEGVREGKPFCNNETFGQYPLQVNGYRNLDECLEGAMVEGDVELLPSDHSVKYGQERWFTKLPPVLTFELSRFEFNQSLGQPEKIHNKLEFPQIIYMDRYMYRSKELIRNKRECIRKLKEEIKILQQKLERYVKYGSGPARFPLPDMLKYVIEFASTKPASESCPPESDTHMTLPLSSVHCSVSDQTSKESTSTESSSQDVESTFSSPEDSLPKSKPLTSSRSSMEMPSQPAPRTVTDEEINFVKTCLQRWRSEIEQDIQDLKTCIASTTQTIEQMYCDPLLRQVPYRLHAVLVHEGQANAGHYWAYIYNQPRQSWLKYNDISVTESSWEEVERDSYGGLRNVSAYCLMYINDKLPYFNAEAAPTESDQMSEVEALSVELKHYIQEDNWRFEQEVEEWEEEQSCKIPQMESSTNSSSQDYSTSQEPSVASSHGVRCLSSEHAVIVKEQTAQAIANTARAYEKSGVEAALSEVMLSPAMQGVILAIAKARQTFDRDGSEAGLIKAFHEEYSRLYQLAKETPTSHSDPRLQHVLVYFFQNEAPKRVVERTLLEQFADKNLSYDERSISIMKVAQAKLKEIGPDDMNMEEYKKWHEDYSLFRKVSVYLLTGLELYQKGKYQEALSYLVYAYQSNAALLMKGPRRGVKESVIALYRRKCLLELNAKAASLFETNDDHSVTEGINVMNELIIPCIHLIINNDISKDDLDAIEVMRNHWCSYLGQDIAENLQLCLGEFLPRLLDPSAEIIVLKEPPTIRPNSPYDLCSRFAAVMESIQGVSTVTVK
Method: USP28: Each assay was performed in a final volume of 20 μL in assay buffer containing 20 mM Tris-HCl (pH 8.0, (1M Tris-HCl, pH 8.0 solution; Corning 46-031-CM)), 2 mM CaCl2) (1M Calcium Chloride solution; Sigma #21114) 2 mM BME (2-Mercaptoethanol; Sigma 63689-25ML-F), 0.01% Prionex (0.22 μM filtered, Sigma # G-0411), and 0.01% Triton X-100. Stock compound solutions were stored at −20° C. as 10 mM in DMSO. Up to 1 month prior to the assay, 2 mM test compounds were pre-dispensed into assay plates (Black, low volume; Corning #3820) and frozen at −20° C. Prestamped assay plates were allowed to come to room temperature on the day of the assay. For the screen, 100 nL of 2 mM was pre-dispensed for a final screening concentration of 10 μM (DMSO(fc)=0.5%). […] Plates were incubated stacked for 90 minutes at room temperature before fluorescence was read on the Envision (Excitation at 485 nm and Emission at 535 nm; Perkin Elmer) or on the PheraSTAR (Excitation at 485 nm and Emission at 535 nm; BMG Labtech).

SMILES | IC50 [1] | IC50 [2]
Cc1cnc2c(N)c(C(=O)NCCc3ccc(N4C5CCC4CNC5)cc3F)sc2n1 [US10889592, Compound I-10] | in the range around 1100 nM | < 200 nM
Cc1cnc2c(N)c(C(=O)NCCc3c(F)cc(N4C5CCC4CNC5)cc3F)sc2n1 [US10889592, Compound I-11] | in the range around 1100 nM | in the range around 1100 nM
